Measured values: patent publication US20090156621A1, “HCV INHIBITORS” (priority 2004, published 2009)
Where a name gives a salt, the structure may show the parent alone.

test system: HCV genotype 1b strain Con1 replicon (ET replicon line, Huh7 cells); assay: HCV ET replicon luciferase assay; format: cell-based; conditions: Hepatitis C virus, Huh-7; ET replicon line (Huh7 cells, HCV genotype 1b Con1 replicon), luciferase read-out, 72 hours; compounds in free or salt form
Method: Compounds of the current invention are believed useful in the treatment and/or prophylaxis of conditions and diseases associated with HcV infection. Activity mediated through HCV was determined using an ET replicon line.
The Materials used include a Medium comprised of DMEM (1× liquid, high glucose); Invitrogen cat# 11965-092; 100×Penicillin/Streptomycin solution (10,000 Units/mL); Invitrogen cat# 15140-122; 100×Non-essential amino acid solution (10 mM); Invitrogen cat# 11140-050; Fetal bovine serum; JRH Biosciences cat# 12107-500M; Geneticin (50 mg/mL); Invitrogen cat# 10131-035
The Luciferase assay reagents include Steady-Glo Luciferase assay system, cat# E2550 (Promega)
The ET replicon line (see Lohmann et al. (1999), Replication of subgenomic hepatitis C virus RNAs in a hepatoma cell line. Science 285:110-113; Krieger et al. (2001), Enhancement of hepatitis C virus RNA replication by cell culture-adaptive mutations. J. Virol. 75: 4614-4624; and Vrolijk et al. (2003), A replicon-based bioassay for the measurement of interferons in patients with chronic hepatitis C. J. Virol. Meth. 110: 201-209, each herein incorporated by reference with regard to the ET replicon line), includes Huh7 cells stably transfected with HCV genotype 1b strain Con1 replicon. This replicon expresses the firefly luciferase, has the coding region for ubiquitin inserted upstream of the neomycin gene, and carries three cell culture-adaptive mutations that enhance RNA replication cooperatively (E1202G, T1280I, and S2197P). The ET cell line was obtained under license from: ReBLikon GmbH, Nach dem alten Schloss 22, 55239 Gau-Odernheim, Germany.
Cells are maintained at 37° C., 5% CO2, in DMEM with 10% FCS, 1× penicillin/streptomycin, 1× non-essential amino acids, 0.5 mg/mL Geneticin. For passage, cells are washed once with PBS, and incubated at 37° C. with sufficient trypsin (0.05%)/versene to cover the monolayer. Once detached from the flask, cells are mixed with several mLs of DMEM+10% FBS to inactivate the trypsin, then diluted appropriately (usually 1 in 5 or 1 in 10) with sufficient medium to pass to a new flask. For a T225 flask, 40-50 mLs total volume of cells+medium is typically used. To prevent the density dependent drop in replicon RNA, the ET cell line is maintained at sub-confluent (60-80%) levels.
Compounds are diluted in DMSO across the first 10 wells of a Costar V-bottom 96-well plate using a Biomek 2000 Workstation (Beckman-Coulter), with 0.5 log10 dilution intervals. DMSO only is added to the last two columns of the plate. The top concentration of drug in this master plate is typically 2.5 mM. A 1/5 dilution of the compounds is made by adding DMEM+10% FBS with a multichannel pipettor, giving a top concentration of 500 μM. 5 μL of diluted compounds is transferred into black Costar flat bottom 96-well daughter plates using a RapidPlate workstation (Zymark).
Cells are grown to approximately 80% confluency and trypsinised as described above. Cells are counted in a Levy Hemocytometer and diluted to 20,000 cells/ml in DMEM containing 10% FBS, 1× penicillin/streptomycin, 1×NEAAs. (Note: Geneticin is omitted for the assay).
245 μL cell suspension is added to the first 11 columns of the daughter plates prepared as above using a Multidrop dispenser (Titertek). Thus, 5,000 cells are added per well, and the final top concentration of each compound is 10 μM. The twelfth column of each plate is used to generate background readings for the assay. […]

Row | Structure (SMILES) | IC50
1 | Clc1ccc2[nH]c3c(c2c1)CCCC3Nc1ccccc1 (centres unmarked) [Example 14, 6-Chloro-N-phenyl-2,3,4,9-tetrahydro-1H-carbazol-1-amine] | 5 nM
2 | Brc1ccc2[nH]c3c(c2c1)CCCC3Nc1ccccc1 (centres unmarked) [Example 13, 6-Bromo-N-Phenyl-2,3,4,9-tetrahydro-1H-carbazol-1-amine] | 10 nM
3 | Brc1ccc2[nH]c3c(c2c1)CCCCC3Nc1ncccn1 (centres unmarked) [Example 38, 2-Bromo-N-pyrimidin-2-yl-5,6,7,8,9,10-hexahydrocyclohepta[b]indol-6-amine] | 39 nM
4 | Brc1ccc2[nH]c3c(c2c1)CCCC3Nc1ccccn1 (centres unmarked) [Example 27, 6-Bromo-N-pyridin-2-yl-2,3,4,9-tetrahydro-1H-carbazol-1-amine Hydrochloride] | 8 nM
5 | Clc1ccc2[nH]c3c(c2c1)CCCC3Nc1ncccn1 (centres unmarked) [Example 23, 6-Chloro-N-pyrimidin-2-yl-2,3,4,9-tetrahydro-1H-carbazol-1-amine] | 52 nM
